Measured values: the NIST ThermoML archive (doi:10.1007/s10765-011-0978-y)

Conditions: Fluid (supercritical or subcritical phases), Falling or rolling sphere viscometry

FCC(F)(F)F [1,1,1,2-tetrafluoroethane]
viscosity [mPa·s]
Conditions | 10000 kPa | 25000 kPa | 50000 kPa | 100000 kPa | 150000 kPa | 200000 kPa | 250000 kPa | 300000 kPa | 350000 kPa | 400000 kPa
293.15 K | 0.255 | 0.3008 | 0.3631 | 0.5045 | 0.6605 | 0.8252 | – | – | – | –
298.15 K | 0.2368 | 0.2795 | 0.3435 | 0.4988 | 0.6459 | 0.819 | 0.9773 | – | – | –
313.15 K | 0.207 | 0.2461 | 0.3127 | 0.4302 | 0.5758 | 0.7155 | 0.8952 | 1.069 | 1.25 | 1.446
323.15 K | 0.1805 | 0.2229 | 0.2852 | 0.3946 | 0.502 | 0.6252 | 0.7651 | 0.914 | – | –
348.15 K | 0.1405 | 0.1783 | 0.2343 | 0.3327 | 0.43 | 0.5368 | 0.6421 | 0.7647 | 0.8894 | 1.04
373.15 K | – | 0.1531 | 0.2038 | 0.2931 | 0.3764 | 0.4649 | 0.5564 | 0.6468 | 0.7557 | 0.8715
398.15 K | – | – | 0.1725 | 0.2544 | 0.3243 | – | – | – | – | –
438.15 K | – | – | 0.1458 | 0.2131 | 0.2789 | 0.3408 | 0.3977 | 0.4612 | – | –
